{"source": "patent US20240207228A1", "about": "“A COMBINATION COMPRISING A SPECIFIC HDAC6 INHIBITOR AND AT LEAST ONE CTLA4 CHECKPOINT INHIBITOR” (ITALFARMACO SPA, priority 2021, published 2024)", "key": {"[1]": {"system": "mouse colon carcinoma cell line CT26", "assay": "Anti-tumor effect in the CT26 murine model (tumor growth inhibition from tumor nodule volume/weight)", "type": "in vivo", "parameters": "key to Statistical significance vs Control group on day 10 / Statistical significance vs Control group on day 12 / Statistical significance vs Control group on day 14 / Statistical significance vs Control group on day 17 / Statistical significance vs Control group on day 19 / Statistical significance vs Control group on day 21 / Statistical significance vs Control group on day 24: n.s.: not significant; *: p < 0.05; **: p < 0.01", "details": "for Statistical significance vs Control group on day 10 / Statistical significance vs Control group on day 12 / Statistical significance vs Control group on day 14 / Statistical significance vs Control group on day 17 / Statistical significance vs Control group on day 19 / Statistical significance vs Control group on day 21 / Statistical significance vs Control group on day 24: CT26 tumor growth", "experimental": "The anti-tumor efficacy of ITF3756, administered in combination with anti-CTLA4 antibody, has been determined using a murine model based on the use of the mouse colon carcinoma cell line CT26. In this model, the CT26 cells are implanted subcutaneously to syngeneic mice and the efficacy is determined as tumor growth inhibition on the basis of the volume of the tumor nodule.\nITF3756 was synthetized by the Medicinal Chemistry Dept. of Italfarmaco SpA. ITF3756, batch 5, as powder was solubilized in DMSO and stored at −20° C. On each day of administration, the solution was diluted with H2O/PEG 400 1:1 to obtain a final solution of H2O/PEG 400 1:1 in DMSO 0.5% at 2.5 and 5.0 mg/mL.\nThe solutions were administered orally by using gavage needles for mice, in a volume of 200 μL (final doses 25 and 50 mg/Kg).\nITF3756 administration started when the tumor nodules were palpable (around day 10 from cells inoculation).\nSyrian hamster IgG Mab anti-mouse CTLA4 was purchased from BioXell (cat. BE0131, clone 9H10), diluted with PBS at 1, 0.3 and 0.1 mg/mL final concentration and stored at +4° C. Each mouse was treated with 200 μL of the respective solution (final doses 10.0, 3.0 and 1.0 mg/Kg).\nAnti-CTLA4 Mab administration started when the tumor nodules were palpable (around day 10 from cells inoculation). Anti-CTLA4 was administered intraperitoneally (ip) once a day on alternate days for a total of 4 treatments, followed by 7 days of wash-out, as reported in table 1. This treatment cycle continued up to the end of the study.\nFemale 6 weeks old BALB/c mice were purchased from Charles River Italia and maintained with food and water ad libitum, under light-dark cycle of 12 hours.\nAfter 5 days of acclimatization, the mice were submitted to tumor cells injection.\nCT26 (murine BALB/c colon carcinoma, CT26.WT ATCC CRL-2638) cells were grown in RPMI 1640 cell culture medium+10% fetal calf serum (FCS).\nThe cells were detached, during the exponential phase, with trypsin, washed with the culture medium without FCS and suspended at 5×10^6 cells/mL final concentration.\nThe cells (1×10^6 cells/mouse) were injected s.c. in the inguinal region of the right flank of the mice in a volume of 200 μL.\nWhen the tumor nodule was palpable in at least 80% of the animals, the mice were randomized in the following experimental groups and drugs administration was started.\nBody weight was measured on alternate days, starting from the first day of drug administration.\nThe volume of subcutaneous tumor nodules was determined on alternate days, according to the following formula (Papagiannoros A. et al. in vivo 20:129-136, 2006):\nwhere D=major diameter of the nodule and d=minor diameter of the nodule.\nThe weight of the tumor nodule was determined by the tumor volume considering a tumor density of 1.05 g/mL (Jensen M. M. et al. BMC Medical Imaging 8(16), 2008).\nThe animals were euthanized when the tumor weight was equal to the 10% of body weight or the tumor nodules were ulcerated (humane end-points).\nThe statistical analysis of the drugs effect was carried out by 2-way ANOVA with Dunnett's multiple comparisons test using GraphPad Prism 8 software."}, "female NOD mice": {"system": "female NOD mice", "assay": "Diabetes induction in female NOD mice (glycemia)", "type": "in vivo", "details": "day 0-21, ITF3756 50 mg/kg os 3x/day, antibodies 500 μg (d0) + 250 μg/mouse ip, diabetes = glucose >250 mg/dL two consecutive days", "experimental": "NOD mice spontaneously developed diabetes and they represent a widely accepted spontaneous model of Type 1 diabetes mellitus (Pearson et al., 2016, Journal of Autoimmunity 66, 76-88).\nITF3756 was synthetized by the Medicinal Chemistry Dept. of Italfarmaco SpA. ITF3756, batch 9, as powder was solubilized in DMSO and stored at −20° C.\nAntibody treatment was according to Ansari (Ansari et al., 2003, The Journal of experimental medicine 1 98, 63-69)\nGlycemia was evaluated in all mice for 3 weeks from day 0 (start treatment) until day 21 (end of study). Blood glucose levels were measured by glucometer One Touch® Verio. Blood samples were drawn from the tail vein by a prick with a needle. A drop of blood was inserted in a test strip and glucometer automatically calculated the glucose level. Results were shown in the display of the instrument. The instrument measures from 20 to 600 mg/dL. Results below 20 or above 600 mg/dL are visualized by the instrument as “below 20” or “above 600”.\nDiabetes was defined by blood glucose reading of >250 mg/dL for two consecutive days.\nMice were monitored for 3 weeks; during this time, body weight was measured 7 times."}, "[2]": {"system": "4T1 triple negative breast cancer", "assay": "4T1 breast cancer model, previous experiments with single agents", "type": "in vivo, mouse", "details": "each drug as single agent", "experimental": "[…] mice challenged with syngeneic tumor cell line 4T1 triple negative breast cancer are used.\n4T1 tumor model is considered a poorly immunogenic tumor (Demaria et al., Clin. Cancer Res. 11, 728-734, 2005).\nITF3756 is used at the same dosage used for the treatment of CT26 colon cancer, namely 50 mg/kg (mpk) TID as single agent and in combination with anti CTLA-4 antibody. The latter is administered at 3 mpk 3 times a week on alternate days.\nTumor growth is induced after subcutaneous injection of cell line and mice are monitored for at least three weeks post-injection."}, "PD-L1 [3]": {"system": "PD-L1", "assay": "Cytokine-induced PD-L1 expression in human monocytes stimulated in vitro", "type": "cell-based"}, "PD-L1 [4]": {"system": "PD-L1", "assay": "PD-L1 expression in mouse immune cells in vivo", "details": "ITF3756 50 mg/Kg three times a day"}, "[5]": {"assay": "Mean level in 24 hours after the efficacious schedule in the mouse", "type": "in vivo", "details": "administration schedule that had shown efficacy, used as target for projected doses", "experimental": "The human doses for ITF3756 were predicted using a physiologically based pharmacokinetic (PBPK) model, through the use of the software GastroPlus™ (Simulation Plus, Lancaster, CA). The target Caverage for projected doses was 200 ng/mL, mean level in 24 hours found after the administration schedule that had shown efficacy in the mouse."}}}
{"compound": "O=C(NO)c1ccc(Cn2nnnc2-c2cccs2)cc1", "note": "[ITF3756, N-hydroxy-4-((5-(thiophen-2-yl)-1H-tetrazol-1-yl)methyl)benzamide]", "values": [{"measurement": "Statistical significance vs Control group on day 10", "setting": "[1]; ITF3756 25 mg/Kg", "value": "n.s."}, {"measurement": "Statistical significance vs Control group on day 12", "setting": "[1]; ITF3756 25 mg/Kg", "value": "n.s."}, {"measurement": "Statistical significance vs Control group on day 14", "setting": "[1]; ITF3756 25 mg/Kg", "value": "n.s."}, {"measurement": "Statistical significance vs Control group on day 17", "setting": "[1]; ITF3756 25 mg/Kg", "value": "n.s."}, {"measurement": "Statistical significance vs Control group on day 19", "setting": "[1]; ITF3756 25 mg/Kg", "value": "n.s."}, {"measurement": "Statistical significance vs Control group on day 21", "setting": "[1]; ITF3756 25 mg/Kg", "value": "n.s."}, {"measurement": "Statistical significance vs Control group on day 24", "setting": "[1]; ITF3756 25 mg/Kg", "value": "n.s."}, {"measurement": "Statistical significance vs Control group on day 10", "setting": "[1]; ITF3756 50 mg/Kg", "value": "n.s."}, {"measurement": "Statistical significance vs Control group on day 12", "setting": "[1]; ITF3756 50 mg/Kg", "value": "n.s."}, {"measurement": "Statistical significance vs Control group on day 14", "setting": "[1]; ITF3756 50 mg/Kg", "value": "n.s."}, {"measurement": "Statistical significance vs Control group on day 17", "setting": "[1]; ITF3756 50 mg/Kg", "value": "n.s."}, {"measurement": "Statistical significance vs Control group on day 19", "setting": "[1]; ITF3756 50 mg/Kg", "value": "n.s."}, {"measurement": "Statistical significance vs Control group on day 21", "setting": "[1]; ITF3756 50 mg/Kg", "value": "* (p < 0.05)"}, {"measurement": "Statistical significance vs Control group on day 24", "setting": "[1]; ITF3756 50 mg/Kg", "value": "n.s."}, {"measurement": "Statistical significance vs Control group on day 10", "setting": "[1]; ITF3756 50 mg/Kg x3", "value": "n.s."}, {"measurement": "Statistical significance vs Control group on day 12", "setting": "[1]; ITF3756 50 mg/Kg x3", "value": "n.s."}, {"measurement": "Statistical significance vs Control group on day 14", "setting": "[1]; ITF3756 50 mg/Kg x3", "value": "n.s."}, {"measurement": "Statistical significance vs Control group on day 17", "setting": "[1]; ITF3756 50 mg/Kg x3", "value": "n.s."}, {"measurement": "Statistical significance vs Control group on day 19", "setting": "[1]; ITF3756 50 mg/Kg x3", "value": "* (p < 0.05)"}, {"measurement": "Statistical significance vs Control group on day 21", "setting": "[1]; ITF3756 50 mg/Kg x3", "value": "** (p < 0.01)"}, {"measurement": "Statistical significance vs Control group on day 24", "setting": "[1]; ITF3756 50 mg/Kg x3", "value": "** (p < 0.01)"}, {"measurement": "inhibition of tumor growth", "setting": "[1]; ITF3756 25 mg/Kg orally once a day, day 24", "value": 7, "unit": "%"}, {"measurement": "tumor weight", "setting": "[1]; ITF3756 25 mg/Kg orally once a day, day 24, control 1.89 g", "value": 1.76, "unit": "g"}, {"measurement": "inhibition of tumor growth", "setting": "[1]; ITF3756 25 mg/Kg orally once a day, entire experimental period", "value": "did not show a significant inhibition of tumor growth"}, {"measurement": "inhibition of tumor growth", "setting": "[1]; ITF3756 50 mg/Kg orally 3 times a day, day 24", "value": 30, "unit": "%"}, {"measurement": "tumor weight", "setting": "[1]; ITF3756 50 mg/Kg orally 3 times a day, day 24, control 1.89 g", "value": 1.32, "unit": "g"}, {"measurement": "inhibition of tumor growth", "setting": "[1]; ITF3756 50 mg/Kg orally once a day, day 21", "value": 34, "unit": "%"}, {"measurement": "tumor weight", "setting": "[1]; ITF3756 50 mg/Kg orally once a day, day 21, control 1.34 g", "value": 0.88, "unit": "g"}, {"measurement": "inhibition of tumor growth", "setting": "[1]; ITF3756 50 mg/Kg orally once a day, day 24", "value": 9, "unit": "%"}, {"measurement": "tumor weight", "setting": "[1]; ITF3756 50 mg/Kg orally once a day, day 24, control 1.89 g", "value": 1.72, "unit": "g"}, {"measurement": "induction of diabetes", "setting": "female NOD mice", "value": "did not accelerates the induction of autoimmune diabetes"}, {"measurement": "average reduction of tumor growth", "setting": "[2]", "value": "approximately 40%"}, {"measurement": "cytokine-induced expression of PD-L1", "setting": "PD-L1 [3]", "value": "decreases"}, {"measurement": "PD-L1 expression", "setting": "PD-L1 [4]", "value": "decreased"}, {"measurement": "Caverage, mean level in 24 hours", "setting": "[5]", "value": 200, "unit": "ng/mL"}]}
